Experimental data: patent US7008957B2, “Bicyclic cyanoheterocycles, process for their preparation and their use as medicaments” (Sanofi-Aventis Deutschland GmbH, priority 2003, dated 2006)

| melting point | Compound |
| --- | --- |
| 209 °C | N#C[C@@H]1CS[C@H]2C[C@](N)(Cc3ccccc3)C(=O)N12.O=C(O)C(F)(F)F |
| 173.5 °C | N#C[C@@H]1CS[C@@H]2C[C@@H](N)C(=O)N12.O=C(O)C(F)(F)F |
